Results: patent publication US20060069132A1, “Azolecarboxamide herbicides” (priority 2004, published 2006)
Like-named read-outs stand apart in the source and are kept apart here.

What was measured:
rice = assay: Test B flooded paddy test; format: in vivo, Oryza sativa; settings: 1000 g ai/ha, visual rating, scale 0 to 100 (0 no effect, 100 complete control), 13 to 15 days
Outline: (§1)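 Formulated test chemicals went onto postemergence plants measuring 2 to 18 cm, at one to four leaves. For the paddy assay, species had reached two leaves. Scoring took place 13–15 days later by eye, relative to untreated plants, using 0 for no effect up to 100 for full control.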

corn = assay: Test B pre-/postemergence herbicide test; format: in vivo, Zea mays
Outline: (§2)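 Plants compared with untreated controls 13–15 days post-treatment and given a visual 0–100 injury score. Applications: preemergence to seeds; postemergence at 1- to 4-leaf (2–18 cm); paddy species flooded, 2-leaf stage. Vehicle non-phytotoxic, surfactant included.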

barnyardgrass [1] = assay: Test B flooded paddy test; format: in vivo, Echinochloa crus-galli; settings: 1000 g ai/ha, visual rating, scale 0 to 100 (0 no effect, 100 complete control), 13 to 15 days
Outline: (§3)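 Treated at 2-leaf (paddy) or 1–4-leaf, 2–18 cm (postemergence); greenhouse 13–15 d; visual score vs control, 0 none to 100 complete control; dash = not tested.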

lambsquarters = assay: Test B pre-/postemergence herbicide test; format: in vivo, Chenopodium album
Outline: as §2

morningglory = assay: Test B pre-/postemergence herbicide test; format: in vivo, Ipomoea coccinea
Outline: (§4)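 Herbicidal effect was judged by eye on a 0–100 scale after plants stood 13 to 15 days in the greenhouse following pre- or postemergence treatment with surfactant-containing formulations.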

[2] = tested on: small flower umbrella sedge; assay: Test B flooded paddy test; format: in vivo, Cyperus difformis; settings: 1000 g ai/ha, visual rating, scale 0 to 100 (0 no effect, 100 complete control), 13 to 15 days
Outline: as §3

wheat = assay: Test B postemergence herbicide test; format: in vivo, Triticum aestivum; design: key to Wheat plant response rating: 0 = no effect, 100 = complete control; settings: postemergence
Outline: as §1

wild oat = assay: Test B postemergence herbicide test; format: in vivo, Avena fatua; settings: postemergence
Outline: as §1

blackgrass = assay: Test B postemergence herbicide test; format: in vivo, Alopecurus myosuroides; settings: postemergence
Outline: as §3

cocklebur = assay: Test B pre-/postemergence herbicide test; format: in vivo, Xanthium strumarium
Outline: as §4

pigweed = assay: Test B pre-/postemergence herbicide test; format: in vivo, Amaranthus retroflexus
Outline: as §2

large crabgrass = assay: Test B pre-/postemergence herbicide test; format: in vivo, Digitaria sanguinalis
Outline: as §2

ducksalad = assay: Test B flooded paddy test; format: in vivo, Heteranthera limosa; settings: 1000 g ai/ha, visual rating, scale 0 to 100 (0 no effect, 100 complete control), 13 to 15 days
Outline: as §3

Surinam grass = assay: Test B pre-/postemergence herbicide test; format: in vivo, Urochloa decumbens
Outline: as §2

barnyardgrass [3] = assay: Test B pre-/postemergence herbicide test; format: in vivo, Echinochloa crus-galli
Outline: as §4

giant foxtail = assay: Test B pre-/postemergence herbicide test; format: in vivo, Setaria faberi
Outline: as §2

[4] = 125 g ai/ha, 0 = no effect, 100 = complete control, preemergence
[5] = 500 g ai/ha, visual rating 0-100, 0 no effect, 100 complete control, preemergence
[6] = postemergence, 125 g ai/ha, visual rating, scale 0 (no effect) to 100 (complete control)
[7] = postemergence, 500 g ai/ha, visual rating, scale 0 (no effect) to 100 (complete control)
[8] = 125 g ai/ha, visual rating, scale 0 (no effect) to 100 (complete control)
[9] = 500 g ai/ha, visual rating, scale 0 (no effect) to 100 (complete control)

CCc1cn(C(C)(C)C)nc1C(=O)Nc1cccc(C(=O)N(CC)CC)c1 [Compound 168, N-[3-[(diethylamino)carbonyl]phenyl]-1-(1,1-dimethylethyl)-4-ethyl-1H-pyrazole-3-carboxamide]
20%: pest or weed control at 31 g/ha (morningglory; Ipomoea, post-emergence, 336 h, postemergence, 31 g ai/ha, scale 0 to 100, read-out: Morningglory plant response rating) | plant injury at 125 g/ha (wheat; Triticum aestivum, post-emergence, 336 h, 125 g ai/ha, visual rating, scale 0 (no effect) to 100 (complete control), read-out: Wheat plant response rating) | pest or weed control at 125 g/ha (wild oat; Avena fatua, post-emergence, 336 h, 125 g ai/ha, visual rating, scale 0 (no effect) to 100 (complete control), read-out: Oat, Wild plant response rating) | pest or weed control at 125 g/ha (large crabgrass; Digitaria sanguinalis, post-emergence, postemergence, 125 g ai/ha, visual rating, scale 0 (no effect) to 100 (complete control), read-out: Crabgrass, Large plant response rating) | pest or weed control at 125 g/ha (Surinam grass; Urochloa decumbens, post-emergence, postemergence, 125 g ai/ha, visual rating, scale 0 (no effect) to 100 (complete control), read-out: Surinam Grass plant response rating) | pest or weed control at 125 g/ha (giant foxtail; Setaria faberi, post-emergence, 336 h, postemergence, 125 g ai/ha, visual rating, scale 0 (no effect) to 100 (complete control), read-out: Foxtail, Giant plant response rating)
50%: plant injury at 125 g/ha (corn; Zea mays, post-emergence, postemergence, 125 g ai/ha, visual rating, scale 0 (no effect) to 100 (complete control), read-out: Corn plant response rating) | pest or weed control at 1000 g/ha (barnyardgrass [1]; Echinochloa crus-galli, 336 h, read-out: Barnyardgrass plant response rating) | pest or weed control at 31 g/ha (lambsquarters; Chenopodium album, post-emergence, 336 h, postemergence, 31 g ai/ha, scale 0 to 100, read-out: Lambsquarters plant response rating) | pest or weed control at 31 g/ha (pigweed; Amaranthus retroflexus, post-emergence, 336 h, postemergence, 31 g ai/ha, scale 0 to 100, read-out: Pigweed plant response rating) | pest or weed control at 125 g/ha (Surinam grass; Urochloa decumbens, pre-emergence, 125 g ai/ha, 0 = no effect, 100 = complete control, read-out: Surinam Grass plant response rating (0 to 100 scale)) | pest or weed control at 125 g/ha (barnyardgrass [3]; Echinochloa crus-galli, post-emergence, postemergence, 125 g ai/ha, visual rating, scale 0 (no effect) to 100 (complete control), read-out: Barnyardgrass plant response rating)
40%: plant injury at 1000 g/ha (rice; Oryza sativa, 336 h, read-out: Rice plant response rating)
90%: pest or weed control at 125 g/ha (lambsquarters; Chenopodium album, pre-emergence, 336 h, 125 g ai/ha, 0 = no effect, 100 = complete control, read-out: Lambsquarters plant response rating (0 to 100 scale)) | pest or weed control at 1000 g/ha ([2]; Cyperus difformis, 336 h, read-out: Sedge, Umbrella plant response rating) | pest or weed control at 125 g/ha (giant foxtail; Setaria faberi, pre-emergence, 336 h, 125 g ai/ha, 0 = no effect, 100 = complete control, read-out: Foxtail, Giant plant response rating (0 to 100 scale))
10%: plant injury at 31 g/ha (corn; Zea mays, post-emergence, postemergence, 31 g ai/ha, scale 0 to 100, read-out: Corn plant response rating) | pest or weed control at 31 g/ha (wild oat; Avena fatua, post-emergence, 336 h, 31 g ai/ha, scale 0 to 100, read-out: Oat, Wild plant response rating) | pest or weed control at 125 g/ha (blackgrass; Alopecurus myosuroides, post-emergence, 336 h, 125 g ai/ha, visual rating, scale 0 (no effect) to 100 (complete control), read-out: Blackgrass plant response rating) | pest or weed control at 31 g/ha (large crabgrass; Digitaria sanguinalis, post-emergence, postemergence, 31 g ai/ha, scale 0 to 100, read-out: Crabgrass, Large plant response rating) | pest or weed control at 31 g/ha (Surinam grass; Urochloa decumbens, post-emergence, postemergence, 31 g ai/ha, scale 0 to 100, read-out: Surinam Grass plant response rating)
30%: pest or weed control at 31 g/ha (cocklebur; Xanthium strumarium, post-emergence, postemergence, 31 g ai/ha, scale 0 to 100, read-out: Cocklebur plant response rating)
70%: pest or weed control at 125 g/ha (lambsquarters; Chenopodium album, post-emergence, 336 h, postemergence, 125 g ai/ha, visual rating, scale 0 (no effect) to 100 (complete control), read-out: Lambsquarters plant response rating) | pest or weed control at 125 g/ha (morningglory; Ipomoea, post-emergence, 336 h, postemergence, 125 g ai/ha, visual rating, scale 0 (no effect) to 100 (complete control), read-out: Morningglory plant response rating) | pest or weed control at 125 g/ha (cocklebur; Xanthium strumarium, post-emergence, postemergence, 125 g ai/ha, visual rating, scale 0 (no effect) to 100 (complete control), read-out: Cocklebur plant response rating) | pest or weed control at 125 g/ha (pigweed; Amaranthus retroflexus, post-emergence, 336 h, postemergence, 125 g ai/ha, visual rating, scale 0 (no effect) to 100 (complete control), read-out: Pigweed plant response rating) | pest or weed control at 1000 g/ha (ducksalad; Heteranthera limosa, 336 h, read-out: Ducksalad plant response rating) | pest or weed control at 125 g/ha (barnyardgrass [3]; Echinochloa crus-galli, pre-emergence, 125 g ai/ha, 0 = no effect, 100 = complete control, read-out: Barnyardgrass plant response rating (0 to 100 scale))
0%: plant injury at 125 g/ha (corn; Zea mays, pre-emergence, 125 g ai/ha, 0 = no effect, 100 = complete control, read-out: Corn plant response rating (0 to 100 scale)) | pest or weed control at 125 g/ha (morningglory; Ipomoea, pre-emergence, 336 h, 125 g ai/ha, 0 = no effect, 100 = complete control, read-out: Morningglory plant response rating (0 to 100 scale)) | plant injury at 31 g/ha (wheat; Triticum aestivum, post-emergence, 336 h, 31 g ai/ha, scale 0 to 100, read-out: Wheat plant response rating) | pest or weed control at 31 g/ha (blackgrass; Alopecurus myosuroides, post-emergence, 336 h, 31 g ai/ha, scale 0 to 100, read-out: Blackgrass plant response rating) | pest or weed control at 125 g/ha (cocklebur; Xanthium strumarium, pre-emergence, 125 g ai/ha, 0 = no effect, 100 = complete control, read-out: Cocklebur plant response rating (0 to 100 scale)) | pest or weed control at 31 g/ha (barnyardgrass [3]; Echinochloa crus-galli, post-emergence, postemergence, 31 g ai/ha, scale 0 to 100, read-out: Barnyardgrass plant response rating) | pest or weed control at 31 g/ha (giant foxtail; Setaria faberi, post-emergence, 336 h, postemergence, 31 g ai/ha, scale 0 to 100, read-out: Foxtail, Giant plant response rating)
100%: pest or weed control at 125 g/ha (pigweed; Amaranthus retroflexus, pre-emergence, 336 h, 125 g ai/ha, 0 = no effect, 100 = complete control, read-out: Pigweed plant response rating (0 to 100 scale)) | pest or weed control at 125 g/ha (large crabgrass; Digitaria sanguinalis, pre-emergence, 125 g ai/ha, 0 = no effect, 100 = complete control, read-out: Crabgrass, Large plant response rating (0 to 100 scale))

C=CCNC(=O)c1cccc(NC(=O)c2sc(C(C)(C)C)nc2CC)c1 [Compound 207]
20: Corn plant response rating (corn; [6]) | Corn plant response rating (corn; [7]) | Morningglory plant response rating (0 to 100 scale) (morningglory; [4]) | Morningglory plant response rating (morningglory; [7]) | Wheat plant response rating (wheat; [8]) | Wheat plant response rating (wheat; [9]) | Oat, Wild plant response rating (wild oat; [8]) | Oat, Wild plant response rating (wild oat; [9]) | Plant response rating, Cocklebur (cocklebur; [5]) | Crabgrass, Large plant response rating (large crabgrass; [6]) | Crabgrass, Large plant response rating (large crabgrass; [7]) | Surinam Grass plant response rating (Surinam grass; [6]) | Surinam Grass plant response rating (Surinam grass; [7]) | Barnyardgrass plant response rating (barnyardgrass [3]; [6]) | Barnyardgrass plant response rating (barnyardgrass [3]; [7]) | Foxtail, Giant plant response rating (giant foxtail; [6]) | Foxtail, Giant plant response rating (giant foxtail; [7])
80: Barnyardgrass plant response rating (barnyardgrass [1]) | Lambsquarters plant response rating (0 to 100 scale) (lambsquarters; [4]) | Lambsquarters plant response rating (lambsquarters; [7]) | Sedge, Umbrella plant response rating [2] | Cocklebur plant response rating (cocklebur; [7]) | Barnyardgrass plant response rating (0 to 100 scale) (barnyardgrass [3]; [4])
90: Pigweed plant response rating (0 to 100 scale) (pigweed; [4]) | Ducksalad plant response rating (ducksalad) | Plant response rating, Barnyardgrass (barnyardgrass [3]; [5]) | Plant response rating, Foxtail, Giant (giant foxtail; [5])
60: Rice plant response rating (rice) | Pigweed plant response rating (pigweed; [7]) | Plant response rating, Surinam Grass (Surinam grass; [5])
100: Plant response rating, Lambsquarters (lambsquarters; [5]) | Plant response rating, Pigweed (pigweed; [5]) | Plant response rating, Crabgrass, Large (large crabgrass; [5])
40: Plant response rating, Morningglory (morningglory; [5]) | Cocklebur plant response rating (cocklebur; [6]) | Surinam Grass plant response rating (0 to 100 scale) (Surinam grass; [4])
30: Pigweed plant response rating (pigweed; [6])
50: Plant response rating, Corn (corn; [5]) | Lambsquarters plant response rating (lambsquarters; [6]) | Foxtail, Giant plant response rating (0 to 100 scale) (giant foxtail; [4])
0: Blackgrass plant response rating (blackgrass; [8])
10: Corn plant response rating (0 to 100 scale) (corn; [4]) | Morningglory plant response rating (morningglory; [6]) | Blackgrass plant response rating (blackgrass; [9]) | Cocklebur plant response rating (0 to 100 scale) (cocklebur; [4])
70: Crabgrass, Large plant response rating (0 to 100 scale) (large crabgrass; [4])
